The values that follow come from publication PMC10584170, “Machine learning-based phenotypic imaging to characterise the targetable biology of Plasmodium falciparum male gametocytes for the development of transmission-blocking antimalarials” (PLOS Pathogens, 2023).

Test [1] concerns P. falciparum male gametocytes. The test is described as follows: P. falciparum Dual Gamete Formation Assay (PfDGFA), male readout (exflagellation). In kind it is cell-based, Plasmodium falciparum NF54. To be noted: for Average inhibition male (%): average of replicates; for % inhibition male (individual replicates) R1: replicate R1; for % inhibition male (individual replicates) R3: replicate R3; for % inhibition male (individual replicates) R4: replicate R4; for Activity: hit = >50% inhibition in male or female readout in at least 3 replicates, 0 = no class assigned. In short, it runs like this:
(§1)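 Two sex-specific readouts come from one well: male exflagellation centres recorded by brightfield video right after activation, and female gametes scored by Cy3-anti-Pfs25 fluorescence after 24 h at 28°C.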

For test [2], the system named is P. falciparum female gametocytes. The experiment in a line: P. falciparum Dual Gamete Formation Assay (PfDGFA), female readout (Pfs25-positive female gametes). In kind it is cell-based, Plasmodium falciparum NF54. To be noted: for Average inhibition female (%): average of replicates; for % inhibition female (individual replicates) R1: replicate R1; for % inhibition female (individual replicates) R3: replicate R3; for % inhibition female (individual replicates) R4: replicate R4. In short, it runs like this: as §1

Where [3] appears, read: 2µM, 24h preincubation with gametocytes prior to induction of gametogenesis.
The mark [4] stands for this setting: 2µM, 24h preincubation, number of replicates with >50% inhibition in the male readout.
[5] abbreviates: 2µM, 24h preincubation, number of replicates with >50% inhibition in the female readout.
The mark [6] stands for this setting: 2µM, 24h preincubation, hits selected on >50% inhibition in the male readout across replicates.
Where [7] appears, read: PfDGFA at 2µM, 24h preincubation.
[8] abbreviates: 2µM, 24h preincubation, hits selected on >50% inhibition in the female readout across replicates.
The mark [9] stands for this setting: PfDGFA at 2µM, 24h preincubation with gametocytes.
[10] abbreviates: number of replicates with >50% inhibition in the male readout, 2µM.
Setting [11] is: number of replicates with >50% inhibition in the female readout, 2µM.
Where [12] appears, read: 2µM, 24h preincubation with gametocytes.
[13] abbreviates: PfDGFA at 2µM, 24h preincubation with gametocytes prior to induction of gametogenesis.

Take `Cl.c1ccc2c(NCCCCCCCNc3ccnc4ccccc34)ccnc2c1` [TCMDC-137897]: in test [1] (setting [3]), the “Average inhibition male (%)” value worked out at 23.4%, the “% inhibition male (individual replicates) R1” value is 24.9%, the “% inhibition male (individual replicates) R3” value is recorded as -14.5% and the “% inhibition male (individual replicates) R4” value was 54.2%. In test [1] (setting [4]), this molecule gave a HitlevelM of 1. Also, in test [2] (setting [3]), the “Average inhibition female (%)” value is 26.1%, the “% inhibition female (individual replicates) R1” value is on record as 24.7%, the “% inhibition female (individual replicates) R3” value is reported as -5.3% and the “% inhibition female (individual replicates) R4” value is reported as 43.2%. For the same molecule, the HitlevelF in test [2] (setting [5]) turned out to be 0.

`Cl.c1ccc2c(c1)cc(CNCCCN1CCN(CCCNCc3cc4ccccc4c4ccccc34)CC1)c1ccccc12` [TCMDC-137914]: in test [1] (setting [3]), the “Average inhibition male (%)” value worked out at 5.2%, the “% inhibition male (individual replicates) R1” value is given as 10.5%, the “% inhibition male (individual replicates) R3” value was -10.9% and the “% inhibition male (individual replicates) R4” value stood at 23.6%. The molecule also gave a HitlevelM in test [1] (setting [4]) of 0. For the same molecule, in test [2] (setting [3]), the “Average inhibition female (%)” value worked out at 20.8%, the “% inhibition female (individual replicates) R1” value is listed as 24.6%, the “% inhibition female (individual replicates) R3” value was 15.0% and the “% inhibition female (individual replicates) R4” value is given as 14.7%. The HitlevelF in test [2] (setting [5]) was 0.

In the case of `CCc1nc(N)nc(N)c1CCCOc1ccccc1Cl.Cl` [TCMDC-137928], in test [1] (setting [3]), the “Average inhibition male (%)” value was -0.378%, the “% inhibition male (individual replicates) R1” value was 19.6%, the “% inhibition male (individual replicates) R3” value was determined as 1.0% and the “% inhibition male (individual replicates) R4” value is listed as -29.1%. The molecule further returned a HitlevelM in test [1] (setting [6]) of 0. Moreover, the Activity in test [1] (setting [7]) is 0. Besides, in test [2] (setting [3]), the “Average inhibition female (%)” value is 14.6%, the “% inhibition female (individual replicates) R1” value was 20.2%, the “% inhibition female (individual replicates) R3” value was determined as 26.6% and the “% inhibition female (individual replicates) R4” value was found to be 2.3%. The same molecule gave a HitlevelF in test [2] (setting [8]) of 0.

As to `CCOc1cc2ccccc2cc1CNCCCCCCNCc1cc2ccccc2cc1OCC.CS(=O)(=O)O` [TCMDC-137940], in test [1] (setting [3]), the “Average inhibition male (%)” value was -10.2%, the “% inhibition male (individual replicates) R1” value is listed as -8.8%, the “% inhibition male (individual replicates) R3” value was -9.1% and the “% inhibition male (individual replicates) R4” value is recorded as -15.1%. Further, the HitlevelM in test [1] (setting [6]) is reported as 0. Besides, in test [1] (setting [7]), the Activity worked out at 0. In test [2] (setting [3]), the “Average inhibition female (%)” value is 10.1%, the “% inhibition female (individual replicates) R1” value turned out to be 11.4%, the “% inhibition female (individual replicates) R3” value is 8.9% and the “% inhibition female (individual replicates) R4” value is 5.4%. Besides, in test [2] (setting [8]), the HitlevelF was 0.

Take `CCOc1c(CNCCCCCCNCc2ccc3ccccc3c2OCC)ccc2ccccc12.CS(=O)(=O)O` [TCMDC-137942]: in test [1] (setting [9]), the “Average inhibition male (%)” value turned out to be 82.7%, the “% inhibition male (individual replicates) R1” value amounted to 76.8%, the “% inhibition male (individual replicates) R3” value turned out to be 64.7% and the “% inhibition male (individual replicates) R4” value worked out at 98.9%. The molecule also had a HitlevelM in test [1] (setting [10]) of 4. Moreover, in test [2] (setting [9]), the “Average inhibition female (%)” value is recorded as 35.4%, the “% inhibition female (individual replicates) R1” value is 30.1%, the “% inhibition female (individual replicates) R3” value amounted to 19.1% and the “% inhibition female (individual replicates) R4” value was determined as 50.5%. In addition, in test [2] (setting [11]), the HitlevelF came to 1.

Regarding `CCCc1cc2c3c(N)nc(N)nc3ccc2n1CC` [TCMDC-137946], in test [1] (setting [12]), the “Average inhibition male (%)” value came out at 95.8%, the “% inhibition male (individual replicates) R1” value came to 97.3%, the “% inhibition male (individual replicates) R3” value turned out to be 96.2% and the “% inhibition male (individual replicates) R4” value amounted to 104.1%. Further, in test [2] (setting [12]), the “Average inhibition female (%)” value is recorded as 82.6%, the “% inhibition female (individual replicates) R1” value is on record as 82.8%, the “% inhibition female (individual replicates) R3” value is 88.8% and the “% inhibition female (individual replicates) R4” value is given as 84.8%.

In the case of `CCCC(CC)n1ccc2c3c(N)nc(N)nc3ccc21.CS(=O)(=O)O` (stereo not shown) [TCMDC-137948], in test [1] (setting [13]), the “% inhibition male (individual replicates) R1” value was determined as 21.2%, the “% inhibition male (individual replicates) R3” value is 21.4% and the “% inhibition male (individual replicates) R4” value was 12.8%. Moreover, the “Average inhibition male (%)” value in test [1] (setting [7]) is listed as 22.4%. Also, in test [2] (setting [13]), the “% inhibition female (individual replicates) R1” value is recorded as -1.7%, the “% inhibition female (individual replicates) R3” value is -3.2% and the “% inhibition female (individual replicates) R4” value is recorded as -13.6%. In test [2] (setting [7]), the “Average inhibition female (%)” value is recorded as -8.1%.

On to `CCCC(CCC)n1ccc2c3c(N)nc(N)nc3ccc21.Cl` [TCMDC-137949], for which, in test [1] (setting [13]), the “% inhibition male (individual replicates) R1” value amounted to 35.5%, the “% inhibition male (individual replicates) R3” value came out at 0.4% and the “% inhibition male (individual replicates) R4” value was -40.5%. Besides, the “Average inhibition male (%)” value in test [1] (setting [7]) came out at 0.9%. For the same molecule, in test [2] (setting [13]), the “% inhibition female (individual replicates) R1” value is 4.6%, the “% inhibition female (individual replicates) R3” value is recorded as 19.1% and the “% inhibition female (individual replicates) R4” value was -10.8%. In test [2] (setting [7]), the “Average inhibition female (%)” value stood at 3.5%.

Take `CCCOc1c(CCNCCCCNCCc2ccc3ccccc3c2OCCC)ccc2ccccc12.CS(=O)(=O)O` [TCMDC-137950]: in test [1] (setting [9]), the “Average inhibition male (%)” value is given as 74.1%, the “% inhibition male (individual replicates) R1” value came to 87.0%, the “% inhibition male (individual replicates) R3” value came to 74.0% and the “% inhibition male (individual replicates) R4” value stood at 95.7%. The HitlevelM in test [1] (setting [10]) is reported as 3. For the same molecule, in test [2] (setting [9]), the “Average inhibition female (%)” value amounted to 65.5%, the “% inhibition female (individual replicates) R1” value stood at 72.1%, the “% inhibition female (individual replicates) R3” value came to 62.6% and the “% inhibition female (individual replicates) R4” value was found to be 79.5%. The HitlevelF in test [2] (setting [11]) was 3.

Take `COc1cc2ccccc2cc1CNCCCCCCNCc1cc2ccccc2cc1OC.CS(=O)(=O)O` [TCMDC-137955]: in test [1] (setting [3]), the “Average inhibition male (%)” value is listed as 53.1%, the “% inhibition male (individual replicates) R1” value came out at 58.5%, the “% inhibition male (individual replicates) R3” value is given as -7.9% and the “% inhibition male (individual replicates) R4” value was determined as 78.9%. The same molecule showed a HitlevelM in test [1] (setting [4]) of 3. Besides, in test [2] (setting [3]), the “Average inhibition female (%)” value came out at 14.7%, the “% inhibition female (individual replicates) R1” value is listed as 13.5%, the “% inhibition female (individual replicates) R3” value was -9.9% and the “% inhibition female (individual replicates) R4” value is on record as 5.4%. This molecule also had a HitlevelF in test [2] (setting [5]) of 0.

Take `Cc1cc2c3c(N)nc(N)nc3ccc2n1C` [TCMDC-137957]: in test [1] (setting [3]), the “Average inhibition male (%)” value came out at 2.4%, the “% inhibition male (individual replicates) R1” value is listed as -0.85%, the “% inhibition male (individual replicates) R3” value is listed as -3.6% and the “% inhibition male (individual replicates) R4” value stood at 3.4%. This molecule also gave a HitlevelM in test [1] (setting [4]) of 0. Besides, in test [2] (setting [3]), the “Average inhibition female (%)” value is 31.9%, the “% inhibition female (individual replicates) R1” value was 39.3%, the “% inhibition female (individual replicates) R3” value came to 32.6% and the “% inhibition female (individual replicates) R4” value is given as 34.2%. This molecule returned a HitlevelF in test [2] (setting [5]) of 0.

On to `Nc1nc(N)c2c(ccc3c2ccn3CCCCO)n1` [TCMDC-137959], for which, in test [1] (setting [13]), the “% inhibition male (individual replicates) R1” value came out at 21.0% and the “% inhibition male (individual replicates) R4” value is on record as -1.8%. Further, in test [1] (setting [7]), the “Average inhibition male (%)” value turned out to be 15.1%. Moreover, in test [2] (setting [13]), the “% inhibition female (individual replicates) R1” value is reported as -0.01%, the “% inhibition female (individual replicates) R3” value is recorded as -3.7% and the “% inhibition female (individual replicates) R4” value amounted to 2.0%. Also, the “Average inhibition female (%)” value in test [2] (setting [7]) is recorded as -0.9%.

On to `Nc1nc(N)c2c(ccc3nn(C4CCCC4)cc32)n1` [TCMDC-137960], for which, in test [1] (setting [3]), the “Average inhibition male (%)” value is listed as -1.6%, the “% inhibition male (individual replicates) R1” value turned out to be 13.2% and the “% inhibition male (individual replicates) R4” value is listed as -27.5%. This molecule gave a HitlevelM in test [1] (setting [6]) of 0. The molecule further registered an Activity in test [1] (setting [7]) of 0. For the same molecule, in test [2] (setting [3]), the “Average inhibition female (%)” value amounted to 4.4%, the “% inhibition female (individual replicates) R1” value stood at 5.0%, the “% inhibition female (individual replicates) R3” value stood at 5.0% and the “% inhibition female (individual replicates) R4” value came out at 9.1%. In addition, in test [2] (setting [8]), the HitlevelF is on record as 0.

On to `CCCCCCOc1ccc2ccccc2c1CNCCCCCCNCc1c(OCCCCCC)ccc2ccccc12.CS(=O)(=O)O` [TCMDC-137963], for which, in test [1] (setting [3]), the “Average inhibition male (%)” value is 26.5%, the “% inhibition male (individual replicates) R1” value was 35.9%, the “% inhibition male (individual replicates) R3” value turned out to be 2.2% and the “% inhibition male (individual replicates) R4” value was 25.6%. In test [1] (setting [4]), this molecule came in with a HitlevelM of 0. Moreover, in test [2] (setting [3]), the “Average inhibition female (%)” value turned out to be 30.9%, the “% inhibition female (individual replicates) R1” value is on record as 24.3%, the “% inhibition female (individual replicates) R3” value was 23.7% and the “% inhibition female (individual replicates) R4” value stood at 29.4%. The molecule also had a HitlevelF in test [2] (setting [5]) of 0.
